Reference: ChEMBL document CHEMBL1124686
The source made the active and inactive calls. The rule behind the calls is not given here.

Key:
[1] = biological target: D(2) dopamine receptor (Mus musculus) (UniProt P61168); assay: Compound was evaluated for its ability to inhibit the potassium -induced release of [3H]- acetylcholine release in mouse striatal […] by stimulating dopamine receptor D2; settings: Striatum
[2] = biological target: D(2) dopamine receptor (Mus musculus) (UniProt P61168); settings: Striatum; Membrane
Description: Compound was evaluated for its ability to inhibit the potassium -induced release of [3H]- acetylcholine release in mouse striatal membranes by stimulating Dopamine receptor D2

[3] = biological target: D(2) dopamine receptor (Mus musculus) (UniProt P61168); assay: Compound was evaluated for its ability to inhibit the potassium -induced release of [3H]- acetylcholine release in mouse striatal […] by stimulating D2 receptor; settings: Striatum
[4] = biological target: D(2) dopamine receptor (Mus musculus) (UniProt P61168); assay: The dissociation constant for the inhibition of agonist effect on the K+ evoked release of [3H]- acetylcholine in mouse striatal […]; NS means No statistically significant antagonism observed in […]; format: functional

Sequence of D(2) dopamine receptor (Mus musculus) (P61168 whole entry): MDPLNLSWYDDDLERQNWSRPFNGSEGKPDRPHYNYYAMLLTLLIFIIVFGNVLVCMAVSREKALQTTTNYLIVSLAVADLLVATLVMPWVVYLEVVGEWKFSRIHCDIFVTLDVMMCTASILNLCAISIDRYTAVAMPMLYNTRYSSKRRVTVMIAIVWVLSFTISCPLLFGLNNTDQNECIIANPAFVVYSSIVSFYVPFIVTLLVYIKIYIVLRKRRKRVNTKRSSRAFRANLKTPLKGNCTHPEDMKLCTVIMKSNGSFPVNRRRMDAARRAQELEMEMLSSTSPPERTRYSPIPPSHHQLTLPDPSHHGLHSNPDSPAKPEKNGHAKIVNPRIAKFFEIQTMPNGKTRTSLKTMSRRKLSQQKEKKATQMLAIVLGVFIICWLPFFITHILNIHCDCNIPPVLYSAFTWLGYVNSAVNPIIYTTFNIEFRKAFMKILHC

ED50 [1] [nM]	Structure (SMILES)	other results
25.1	CC[N+]1(C)CCCC1CNC(=O)c1cc(S(N)(=O)=O)ccc1OC (stereo unspecified)	
	CCN1CCCC1CNC(=O)c1cc(S(N)(=O)=O)ccc1OC (stereo unspecified)	ED50 [2]: 75.9 nM
26.3	CC[N+]1(CC)CCCC1CNC(=O)c1cc(S(N)(=O)=O)ccc1OC (stereo unspecified)	
	CC[S+]1CCCC1CNC(=O)c1cc(S(N)(=O)=O)ccc1OC (stereo unspecified)	ED50 [3]: 38.4 nM
48.1	COc1ccc(S(N)(=O)=O)cc1C(=O)NCC1CCCS1 (stereo unspecified)	Kb [4]: inactive
